Assay results taken from patent publication US20220064291A1, “METHODS OF USING BUTYROPHILIN ANTIBODIES FOR TREATING HIV INFECTION” (Merck Sharp & Dohme Corp., priority 2018, published 2022).

Columns and labels:
[1] = system: HIV latent primary CD4+ T cells; experiment: Competition with recombinant BTN-Fc proteins against anti-BTN3A 20.1-mediated virus reactivation; format: cell-based, human; conditions: recombinant Fc proteins 0.03-10 μg/ml; 24 h; FIG. 6
Protocol: To confirm the specificity of anti-BTN3A antibody-mediated activity on latent virus activity and T cell activation, we performed competition experiments using recombinant BTN proteins. Briefly, 96-well flat bottom tissue culture plates (Corning) were coated with anti-CD3 (1 μg/ml) and anti-BTN3A 20.1 antibody (5 μg/ml) in PBS for 16 h in a 4° C. refrigerator. The next day, antibodies were aspirated using a multichannel pipette and various concentrations of recombinant BTN-Fc proteins BTN3A1-Fc and BTN3A2-Fc (10 μg/ml, 3 μg/ml, 1 μg/ml, 0.3 μg/ml, 0.1 μg/ml, and 0.03 μg/ml) were added to antibody coated plates in 2% FBS (in PBS). BTN2A2-Fc and human IgG Fc were used as controls. After 30 min incubation at RT recombinant Fc proteins were aspirated using a multichannel pipette. Next, HIV latent primary CD4+ T cells from two donors were added to the antibody coated plates in duplicates at 125,000 cells/well in 200 ul of primary cell media (RPMI with 10% FBS, 50 μg/ml Primocin™). At 24h post treatment virus reactivation was measured using a Nano-Glo® Luciferase Assay (Promega) (FIG. 6).

[2] = system: human CD4+ T cells; experiment: Inhibition of anti-CD3 (TCR)-mediated T cell activation by recombinant butyrophilin-Fc proteins, bead- and plate-based assays; conditions: anti-CD3 stimulation, FIG. 3
Protocol: To characterize the role of butyrophilins in regulating T cell responses, T cell assays were performed using recombinant human butyrophilin-Fc proteins. Specifically, we assessed the role of butyrophilins in inhibiting T cell receptor (TCR)-mediated T cell activation by anti-CD3 antibody (clone OKT3). Experiments were performed in bead- and plate-based formats.
Briefly, PBMCs were isolated from healthy human donors (Biological Specialty Corporation, Colmar, Pa.). To generate T cell blasts, PBMCs were treated with IL-2 (4u/ml) and PHA (1 μg/ml) in RPMI media containing 10% Fetal bovine serum (Gibco, Gaithersburg, Md.), penicillin (100U/ml)/streptomycin (0.1 mg/ml) (Gibco, Gaithersburg, Md.), and L-Glutamine (2 mM) (Gibco, Gaithersburg, Md.) at 37° C. in a CO2 incubator for 7 days. Fresh media was added once every 3 days. […]
4. […] T cell activation was measured based on IFNγ expression using a V-PLEX proinflammatory panel 1 human assay (Meso Scale Discovery, Rockville, Md.) (FIG. 3A-C).
Sterile 96-well flat bottom tissue culture plates (Corning) were coated with 1 μg/ml of anti-CD3 antibody (Clone OKT3, BD Pharmingen) in PBS+/− the following Fc-fusion proteins: BTN2A2-Fc, BTN3A1-Fc, or human IgG Fc. […] T cell activation was measured based on IFNγ expression using a V-PLEX proinflammatory panel 1 human assay (Meso Scale Discovery, Rockville, Md.) (FIG. 3D).

BTN3A1-Fc: recombinant human butyrophilin-Fc fusion protein, R&D systems
inhibition of anti-BTN3 20.1 Ab-mediated latent HIV activation and T cell activation [1]: dose-dependent inhibition | activation of human CD4+ T cells (IFNγ production, T cell proliferation, IL-2 production) [2]: block activation
